How the values were obtained:
[1] = mouse, in vivo
Description: IPI-926 drug levels in tumor and brain samples were determined as described previously (Olive et al., (2009) Science 324: 1457-1461). Briefly, samples were homogenized in 4 volumes of CAN:PBS buffer and homogenized using a Geno/Grinder from SPEX CertiPrep (Metuchen, N.J.) for 2 minutes. Homogenates were then filtered using […] low binding hydrophilic multiscreen solvinert late (Millipore) and collected in a 96-well plate. The tissue filtrates were diluted 1:1 and IPI-926 levels were determined. Sample analysis was performed on an Agilent 1200 from Agilent Technologies (Santa Clara, Calif.) coupled with an API-4000 mass spectrometer from Applied Biosystems (Foster City, Calif.) for detection. Data were acquired and processed using the software Analyst 1.4.1 (Applied Biosystems). Sample concentrations, as measured by their peak area ratios (analyte divided by internal standard), were determined from the calibration curves.

Pgp/ABCB1 and BCRP = details: mouse, not told
[2] = system: L3.6pl P-lucky liver metastasis; test: L3.6pl liver metastasis model, Study #1; assay type: in vivo; details: for H&E staining of liver, tumor cells or metastasis: day 21
Description: Cells: L3.6pl is a pancreatic cancer cell line that has been tagged with the bioluminescence marker, luciferase, and is known to form metastasis in the liver (pl—pancreas to liver). Cells were cultured in RPMI+10% FBS and harvested on the day of implant. A single cell suspension was prepared in PBS at a concentration of 10 million cells per 1 ml of PBS. These cells were kept at 4° C. until implantation.
Model Procedure: Animals were anesthetized and prepared for surgery. The animal's spleen was exposed and 100 μl (1 million cells) of the L3.6pl single cell suspension was injected directly in the spleen towards the splenic vein (intra splenic injection). Once the injection was complete, the splenic artery and splenic vein were ligated, the spleen was excised, and the animals' wounds were closed. Post-op care and analgesia was given for 4 consecutive days and animals were monitored for recovery.
Prior to the procedure listed above 40 animals were separated into 4 groups consisting of 10 animals each.
Animals in group 2 (Pre-Treatment), received IPI-926 every-other-day for 14 days, prior to the intra splenic injection procedure, continuing until the study end.
Animals in group 3 (Day-of-Treatment), received IPI-926 every-other-day beginning on the day of the intra splenic injection procedure, continuing until the study end.
Animals in group 4 (Post-Treatment), received IPI-926 every-other-day beginning 7 days after the intra splenic injection procedure, continuing until the study end.
Results Procedure: Animals were injected with 10 ml/kg of luciferin concentrated at […] via I.P. injection. This luciferin binds to the L3.6pl P-Lucky cells injected on day 0. Utilizing Calipers Xenogen© machine, this cell-luciferin association emits bioluminescence that can be read and quantified (total flux).
Results: The graphs in FIGS. 10A-10B represent the quantification, normalized on each day to the average of vehicle treated animals. This normalization was done using the formula: (1/(average flux of vehicle animals/average flux of group X (group being compared))).

Gli1 = Gli1 mRNA by RT-PCR in Ptc^C/C tumors; assay type: in vivo, mouse; details: for suppression of Gli1 levels vs vehicle: daily 20 mg/kg/dose; for reduction in Gli1 mRNA levels: single dose
Description: Pharmacodynamic activity of IPI-926 in Ptc^C/C tumors was confirmed by analysis of Gli1 mRNA by RT-PCR. Mice were treated daily with 20 mg/kg/dose IPI-926 for 2 days, 2 weeks or 6 weeks and tumor tissue isolated and snap frozen 24 hours after the last dose. Total RNA was extracted using the Qiagen RNeasy Plus Kit and converted to cDNA using the Taqman Reverse Transcription kit (ABI). Quantitative Real Time PCR was set up using Taqman Master Mix and run on the Applied Biosystems 7300HT Real-Time PCR (384-well qPCR) System. Taqman primers for mouse Gli1 and Gapdh controls were used (ABI). Data was analyzed using SDS2.3 software (ABI). All conditions were run in triplicate and normalized to mouse Gapdh controls. Expression of IPI-926 treated (n=3 per time point) samples were normalized to vehicle control (n=3 per time point) samples.
In initial studies in the Ptc^C/C mice intracranial pressures were sufficiently high in some mice that brainstem herniation into the spinal canal and subsequent death occurred by tipping the head back for gavage feeding. Pharmacodynamic studies were conducted with intraperitoneal (IP) drug injection as well as oral gavage to see whether the IP route offered a safe and effective alternative to gavage drug administration. Both oral and IP routes induced approximately 90% reduction in Gli1 mRNA levels (FIG. 14), so IP administration was used for all subsequent studies.

[3] = system: LX22 primary small cell lung tumor; test: LX22 primary small cell lung cancer xenograft, post etoposide/carboplatin; assay type: in vivo, mice
Description: FIG. 1 is a series of line graphs showing the effect in tumor size (mm^3) as a function of days of treatment of mice having an LX22 primary small cell lung tumor with IPI-926 alone (“IPI-926”), etoposide/carboplatin followed by vehicle control (“E/P→Vehicle”), E/P followed by IPI-926 (“E/P→IPI-926”) and vehicle control. Mice were treated for 5 weeks total with IPI-926 follow-up treatment at 40 mg/kg PO QD.
Briefly, LX22 primary small cell lung model was treated with 1.5 cycles of etoposide/carboplatin (E/P). Administration of IPI-926 was initiated 24 hours after the last dose of chemotherapy. In the normal course of these studies, IPI-926 was administered […].
The effect of delaying the onset of IPI-926 administration following chemotherapy was further characterized. […] FIG. 2 is a linear graph depicting the effect in tumor size as a function of time of chemotherapy treatment and following with IPI-926 treatment on day 5 (D5) and day 15 (D15) following chemotherapy treatment. Thus, a narrow window of intervention is necessary to maximize the beneficial effects of IPI-926 in tumor inhibition following chemotherapy.

## CC1=C2C[C@H]3[C@@H](CC[C@@H]4C[C@H](NS(C)(=O)=O)CC[C@@]43C)[C@@H]2CC[C@@]2(C1)O[C@@H]1C[C@H](C)CN[C@H]1[C@H]2C [IPI-926]
[1]
  blood brain barrier penetration: crossed the blood brain barrier
Pgp/ABCB1 and BCRP
  Pgp protein expression (IHC): focal increases in Pgp
  expression level of BCRP (Western blot): not significantly increased
  expression level of Pgp (Western blot): not significantly increased
[2]; IPI-926 every-other-day from 14 days prior to implant
  reduction in flux (bioluminescence) below vehicle: 20-25 fold
[2]; day of implant treatment (Day 0)
  take or growth of metastasis within the liver: no detectable effect
[2]; day of treated group
  H&E staining of liver, tumor cells or metastasis: visible metastasis and tumors cells present
[2]; day of treatment group
  survival rate vs vehicle: survival rates similar to vehicle treated animals
[2]; post implant treatment (Day 7)
  take or growth of metastasis within the liver: no detectable effect
[2]; post treated group
  H&E staining of liver, tumor cells or metastasis: visible metastasis and tumors cells present
[2]; post treatment group
  survival rate vs vehicle: survival rates similar to vehicle treated animals
[2]; pre-treatment animal
  H&E staining of liver, tumor cells or metastasis: no detectable tumor cells or metastasis
[2]; treatment from 14 days prior to implant
  overall survival rate vs vehicle: doubles the overall survival rate
Gli1; after 2 weeks of therapy
  suppression of Gli1 levels vs vehicle: 60%
Gli1; after 6 weeks of therapy
  suppression of Gli1 levels vs vehicle: 30%
Gli1; after 2 days of therapy
  suppression of Gli1 levels vs vehicle: 90%
Gli1; intraperitoneal injection
  reduction in Gli1 mRNA levels: approximately 90%
Gli1; oral gavage
  reduction in Gli1 mRNA levels: approximately 90%
[3]; E/P then IPI-926 40 mg/kg PO QD, started 24 hours after last chemotherapy dose
  tumor re-growth following cyto-reductive chemotherapy: inhibitory effect on the re-growth of tumors
[3]; IPI-926 administration delayed by 5 or 14 days after chemotherapy
  tumor growth inhibition with delayed onset of administration: loss of the IPI-926 effect in tumor growth inhibition
[3]; tumors after chemotherapy, vs vehicle-treated
  expression of stromal marker murine Gli-1: inhibited

From US20120010229A1, “THERAPEUTIC REGIMENS FOR HEDGEHOG-ASSOCIATED CANCERS” (priority 2010, published 2012)
